Test results reported in patent publication US8435929B2, “1-aminocyclopropane carboxylic acid as a fruit thinner” (Valent BioSciences Corporation, priority 2009, dated 2013).

Assays:
Babygold #5 peach [1] = assay: Field thinning study, fruit set of Babygold #5 peach; type: in vivo
Procedure: A series of field studies on stone fruit thinning were performed over several seasons, on different varieties and in various locations to determine the consistency of the thinning effect of ACC. Even without the application of a chemical thinning agent, crop load (number of fruit remaining divided by the number of flowers or fruit prior to application) was variable. Chemical thinning of stone fruit is variable and dependent on many factors including variety and environment. An acceptable chemical thinning agent is one that gives a substantial and relatively consistent reduction in crop load for a given dose over a wide range of trials.
The effect of ACC rate and timing was determined. ACC was sprayed on Babygold #5 peach trees at bloom (Table 1) or shuck split (early fruitlet stage) (Table 2).

cotton cotyledons = assay: Cotton cotyledon bioassay, ethylene production; type: in vivo
From the text: For laboratory and growth chamber studies, deionized ultra-pure water was used in preparing solutions. Spray solutions were used as soon as possible after mixing. All spray solutions were amended with spray adjuvants as appropriate. A cotton cotyledon bioassay was used in the laboratory to study the effects of ACC or ethephon on induction of ethylene. Ten day old cotton plants with fully expanded cotyledons were used. Sprays were made to the upper (adaxial) surface of the leaves and the plants were then incubated in growth cabinets at the temperatures indicated. The cotyledons were excised at the times indicated and placed in sealed plastic vials. Headspace ethylene samples were measured on a Hewlett Packard 5890 gas chromatograph equipped with a packed Haysep T column (Alltech, Deerfield, Ill.) and a flame ionization detector.
Selected characteristics of ACC conversion to ethylene (i.e. dose response, time course, and temperature effect) were assessed to determine whether the relative consistence of ACC as a stone fruit and apple thinner was related to performance as an ethylene producer. In these bioassays, ACC solutions were applied to cotton cotyledons by a hand sprayer at the doses indicated and all spray solutions contained 0.05% (v/v) L-77.
In the first study, the effect of ACC dose sprays on ethylene produced by cotton cotyledons was determined. (Table 16). Cotton plants were sprayed with solution (ACC at 1, 10, 25, 50, 100, 250, 500, or 1000 ppm) and the cotyledons were excised 6 or 24 h after spraying and incubated in sealed tubes for 4 h. Ethylene levels were determined production was assayed.
In the second study, the time course of ethylene production following application of 500 mg/liter ACC or ethephon was determined (Table 17).
In the third study, the effect of temperature on ethylene production following ACC or ethephon application was determined (Table 18). The incubation of the plants following spraying and the incubation of the detached leaves were performed at 25 and 35° C.

PF-27 peaches = assay: Field thinning study, ACC and ABA, fruit set of PF-27 peaches; type: in vivo, peach; conditions: application at shuck split
From the text: Application of ACC alone at shuck split reduced fruit set in a dose dependent manner (Table 10).

Babygold #5 peach [2] = assay: Field thinning study, fruit set of Babygold #5 peach; type: in vivo; remark: listed apart in the source
Summer Rich peaches = assay: Field thinning study, fruit set, fruit weight and crop safety of Summer Rich peaches
Rose Diamond nectarines = assay: Field thinning study, fruit set of Rose Diamond nectarines; type: in vivo, nectarine; conditions: application at late shuck fall
[3] = 100 ppm, application at shuck split, 0.05% Regulaid adjuvant
[4] = 300 ppm, application at shuck split, 0.05% Regulaid adjuvant
[5] = 1000 ppm, application at shuck split, 0.05% Regulaid adjuvant
[6] = 500 ppm, application at petal fall, trial of Table 4
[7] = 500 ppm, application at petal fall, trial of Table 5 (other location)
[8] = 750 ppm, application at petal fall, trial of Table 4
[9] = 750 ppm, application at petal fall, trial of Table 5 (other location)

NC1(C(=O)O)CC1 [ACC, 1-aminocyclopropane carboxylic acid]
Crop load (percent) of treated trees compared to the water control (Babygold #5 peach [1]; 100 ppm, application at bloom): 90%
Crop load (percent) of treated trees compared to the water control (Babygold #5 peach [1]; [3]): 102%
Crop load (percent) of treated trees compared to the water control (Babygold #5 peach [1]; 300 ppm, application at bloom): 77%
Percent fruit set (Babygold #5 peach [1]; 300 ppm, application at bloom): 57%
Percent fruit set (Babygold #5 peach [1]; [4]): 61%
Crop load (percent) of treated trees compared to the water control (Babygold #5 peach [1]; 1000 ppm, application at bloom): 40%
Percent fruit set (Babygold #5 peach [1]; 1000 ppm, application at bloom): 30%
Percent fruit set (Babygold #5 peach [1]; [5]): 11%
Ethylene production (cotton cotyledons; 10 ppm, 6 h after spraying, 25 C): 4.2 nl/g leaf weight/h incubated
Ethylene production (cotton cotyledons; 10 ppm, 24 h after spraying, 25 C): 13.7 nl/g leaf weight/h incubated
Ethylene production (cotton cotyledons; 25 ppm, 6 h after spraying, 25 C): 5.9 nl/g leaf weight/h incubated
Ethylene production (cotton cotyledons; 25 ppm, 24 h after spraying, 25 C): 22.8 nl/g leaf weight/h incubated
Ethylene production (cotton cotyledons; 50 ppm, 6 h after spraying, 25 C): 8.3 nl/g leaf weight/h incubated
Ethylene production (cotton cotyledons; 50 ppm, 24 h after spraying, 25 C): 32.4 nl/g leaf weight/h incubated
Ethylene production (cotton cotyledons; 100 ppm, 6 h after spraying, 25 C): 11.8 nl/g leaf weight/h incubated
Ethylene production (cotton cotyledons; 100 ppm, 24 h after spraying, 25 C): 45.2 nl/g leaf weight/h incubated
Ethylene production (cotton cotyledons; 200 ppm, 24 h after application, incubated at 25 C): 35.7 nl/g leaf weight/h incubated
Ethylene production (cotton cotyledons; 200 ppm, 24 h after application, incubated at 35 C): 19.9 nl/g leaf weight/h incubated
Ethylene production (cotton cotyledons; 250 ppm, 6 h after spraying, 25 C): 19.4 nl/g leaf weight/h incubated
Ethylene production (cotton cotyledons; 250 ppm, 24 h after spraying, 25 C): 59.8 nl/g leaf weight/h incubated
Ethylene production (cotton cotyledons; 500 ppm, 1 h following spray application, 25 C (time course)): 62.8 nl/g leaf weight/h incubated
Ethylene production (cotton cotyledons; 500 ppm, 4 h following spray application, 25 C (time course)): 36.7 nl/g leaf weight/h incubated
Ethylene production (cotton cotyledons; 500 ppm, 6 h after spraying, 25 C): 22.8 nl/g leaf weight/h incubated
Ethylene production (cotton cotyledons; 500 ppm, 15 h following spray application, 25 C (time course)): 45.7 nl/g leaf weight/h incubated
Ethylene production (cotton cotyledons; 500 ppm, 24 h after spraying, 25 C): 64.4 nl/g leaf weight/h incubated
Ethylene production (cotton cotyledons; 500 ppm, 24 h following spray application, 25 C (time course)): 49.3 nl/g leaf weight/h incubated
Ethylene production (cotton cotyledons; 500 ppm, 48 h following spray application, 25 C (time course)): 45.3 nl/g leaf weight/h incubated
Ethylene production (cotton cotyledons; 1000 ppm, 6 h after spraying, 25 C): 25.1 nl/g leaf weight/h incubated
Ethylene production (cotton cotyledons; 1000 ppm, 24 h after spraying, 25 C): 92.1 nl/g leaf weight/h incubated
Crop load (percent) of treated trees compared to the untreated control (PF-27 peaches; 100 ppm): 81%
Percent fruit set (PF-27 peaches; 100 ppm): 70%
Crop load (percent) of treated trees compared to the untreated control (PF-27 peaches; 300 ppm): 67%
Percent fruit set (PF-27 peaches; 300 ppm): 58%
Crop load (percent) of treated trees compared to the untreated control (PF-27 peaches; 1000 ppm): 15%
Percent fruit set (PF-27 peaches; 1000 ppm): 13%
Percent fruit set (Babygold #5 peach [2]; 100 ppm, application at bloom): 67%
Percent fruit set (Babygold #5 peach [2]; [3]): 85%
Crop load (percent) of treated trees compared to the water control (Babygold #5 peach [2]; [4]): 72%
Percent Fruit Set (Babygold #5 peach [2]; 500 ppm, 10 mm fruitlet timing): 6.7%
Crop load (percent) of treated trees compared to the untreated control (Babygold #5 peach [2]; [6]): 67%
Percent fruit set (Babygold #5 peach [2]; [6]): 32%
Crop load (percent) of treated trees compared to the untreated control (Babygold #5 peach [2]; [7]): 98%
Percent fruit set (Babygold #5 peach [2]; [7]): 42%
Crop load (percent) of treated trees compared to the untreated control (Babygold #5 peach [2]; [8]): 50%
Percent fruit set (Babygold #5 peach [2]; [8]): 24%
Crop load (percent) of treated trees compared to the untreated control (Babygold #5 peach [2]; [9]): 72%
Percent fruit set (Babygold #5 peach [2]; [9]): 31%
Crop load (percent) of treated trees compared to the water control (Babygold #5 peach [2]; [5]): 14%
Crop load (percent) of treated trees compared to the untreated control (Summer Rich peaches; 500 ppm at 15 mm fruit stage): 34%
Crop safety on vegetation (0-4 scale) (Summer Rich peaches; 500 ppm at 15 mm fruit stage): 3.0 0-4 scale
Fruit weight at maturity (Summer Rich peaches; 500 ppm at 15 mm fruit stage): 144 g
Percent fruit set (Summer Rich peaches; 500 ppm at 15 mm fruit stage): 24%
Crop load (percent) of treated trees compared to the untreated control (Summer Rich peaches; 500 ppm at petal fall): 55%
Crop safety on vegetation (0-4 scale) (Summer Rich peaches; 500 ppm at petal fall): 0.5 0-4 scale
Fruit weight at maturity (Summer Rich peaches; 500 ppm at petal fall): 140 g
Percent fruit set (Summer Rich peaches; 500 ppm at petal fall): 39%
Crop load (percent) of treated trees compared to the untreated control (Summer Rich peaches; 750 ppm at 15 mm fruit stage): 24%
Crop safety on vegetation (0-4 scale) (Summer Rich peaches; 750 ppm at 15 mm fruit stage): 3.5 0-4 scale
Fruit weight at maturity (Summer Rich peaches; 750 ppm at 15 mm fruit stage): 169 g
Percent fruit set (Summer Rich peaches; 750 ppm at 15 mm fruit stage): 17%
Crop load (percent) of treated trees compared to the untreated control (Summer Rich peaches; 750 ppm at petal fall): 39%
Crop safety on vegetation (0-4 scale) (Summer Rich peaches; 750 ppm at petal fall): 0.8 0-4 scale
Fruit weight at maturity (Summer Rich peaches; 750 ppm at petal fall): 151 g
Percent fruit set (Summer Rich peaches; 750 ppm at petal fall): 28%
Leaf yellowing and leaf loss (Summer Rich peaches; application at petal fall, stated for both varieties (Summer Rich and O'Henry)): minimized leaf yellowing and leaf loss
Crop load (percent) of treated trees compared to the untreated control (Rose Diamond nectarines; 125 ppm): 88%
Percent fruit set (Rose Diamond nectarines; 125 ppm): 60%
Crop load (percent) of treated trees compared to the untreated control (Rose Diamond nectarines; 250 ppm): 90%
Percent fruit set (Rose Diamond nectarines; 250 ppm): 61%
Crop load (percent) of treated trees compared to the untreated control (Rose Diamond nectarines; 500 ppm): 65%
Percent fruit set (Rose Diamond nectarines; 500 ppm): 44%
Crop load (percent) of treated trees compared to the untreated control (Rose Diamond nectarines; 1000 ppm): 24%
Percent fruit set (Rose Diamond nectarines; 1000 ppm): 16%
